Assay results taken from PMC6597268 (Biochemistry, 2019).
Values belong to the molecule of their own block, whether it stands above or below them.

Key:
MitE = target: T1, MitE (Streptomyces lavendulae, UniProt Q9X5R7); test: HPLC of AHBA released from MmcB by KOH or cysteamine; assay type: biochemical; conditions: holo-MmcB as acceptor
T1 sequence (Q9X5R7 1-707): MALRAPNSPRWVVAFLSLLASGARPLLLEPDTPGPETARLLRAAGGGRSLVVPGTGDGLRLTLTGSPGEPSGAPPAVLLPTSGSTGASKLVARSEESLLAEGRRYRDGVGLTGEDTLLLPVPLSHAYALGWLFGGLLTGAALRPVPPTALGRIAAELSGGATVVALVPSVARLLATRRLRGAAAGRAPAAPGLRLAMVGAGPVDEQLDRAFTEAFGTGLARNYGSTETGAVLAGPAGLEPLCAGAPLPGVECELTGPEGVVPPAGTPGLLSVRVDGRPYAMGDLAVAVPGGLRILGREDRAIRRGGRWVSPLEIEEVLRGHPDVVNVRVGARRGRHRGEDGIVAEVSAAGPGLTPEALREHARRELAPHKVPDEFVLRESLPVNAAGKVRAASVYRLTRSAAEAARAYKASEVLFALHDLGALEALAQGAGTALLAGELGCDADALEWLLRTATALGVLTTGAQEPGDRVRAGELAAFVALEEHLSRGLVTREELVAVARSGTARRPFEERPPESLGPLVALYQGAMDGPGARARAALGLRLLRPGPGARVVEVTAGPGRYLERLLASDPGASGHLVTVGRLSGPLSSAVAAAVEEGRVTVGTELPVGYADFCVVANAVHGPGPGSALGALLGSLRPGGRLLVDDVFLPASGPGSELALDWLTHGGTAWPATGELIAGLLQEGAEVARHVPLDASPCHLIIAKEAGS
T1 sequence (Q9X5S0 1-93 partner): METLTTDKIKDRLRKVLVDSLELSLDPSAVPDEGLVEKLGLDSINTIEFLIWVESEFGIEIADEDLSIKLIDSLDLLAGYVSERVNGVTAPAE

MitB = MitB (Streptomyces lavendulae, UniProt Q9WW09); test: anion exchange HPLC steady-state kinetics, Michaelis-Menten fit; assay type: biochemical; conditions: pseudo-first order

SMILES: Nc1cc(O)cc(C(=O)O)c1 [AHBA]
HPLC of AHBA released from MmcB by KOH or cysteamine (MitE; ATP): These evidences in combination suggest that MitE catalyzes the loading of AHBA onto holo-MmcB

SMILES: Nc1ncnc2c1ncn2[C@@H]1O[C@H](COP(=O)(O)OP(=O)(O)OP(=O)(O)O)[C@@H](O)[C@H]1O [ATP]
HPLC of AHBA released from MmcB by KOH or cysteamine (MitE; AHBA): we investigated the ability of MitE to load AHBA to holo-MmcB in the presence of ATP

Km (MitB; 2 mM UDP-GlcNAc as donor): 10 ± 3.3 mM
SMILES: CC(=O)NCCSC(=O)c1cc(N)cc(O)c1 [SNAc-AHBA]

Km (MitB; 2 mM SNAc-AHBA (unsaturating) as acceptor): 0.94 ± 0.15 mM
SMILES: CC(=O)N[C@H]1[C@@H](OP(=O)(O)OP(=O)(O)OC[C@H]2O[C@@H](n3ccc(=O)[nH]c3=O)[C@H](O)[C@@H]2O)O[C@H](CO)[C@@H](O)[C@@H]1O [UDP-GlcNAc]
